Among the test systems are CCRF-CEM; MCF7; SW-620; OVCAR-5; OVCAR-8; MDA-N; UO-31; HCT-116; UACC-62; HT-29; HOP-92; NCI-H460; SK-MEL-28; A498; T47D; U-251; SN12C; NCI-H522; MOLT-4.
What all share (test): NCI anticancer screen, dose series, 48 h

The values that follow come from ChEMBL document CHEMBL1201862, “PubChem BioAssay data set” (2004).

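A five-concentration, 48-hour dose response in 96-well plates underlies each endpoint, interpolated linearly between surrounding concentrations. GI50 = concentration required for 50% inhibition of growth.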 Activity calls are given as the source filed them. No stated cut-off is given here; in the data, active = GI50 up to about 1.1 µM and inactive = higher. Where only a bound is given, the exact number is not on record here.

As to `CN(CC(=O)O)Cc1c(O)c(Cl)cc(Cl)c1Cl`, the GI50 in the assay on CCRF-CEM is 5.13 µM (inactive); with MCF7 it was 17.9 µM (inactive); in the assay on SW-620, 40.5 µM (inactive); with OVCAR-5 it was 26.5 µM (inactive); in the assay with OVCAR-8 it was 29.2 µM (inactive); in the assay on MDA-N it was 47.2 µM (inactive). Further, the GI50 is 23.2 µM (inactive) in the assay on UO-31; 12.5 µM (inactive) with HCT-116; 23.1 µM (inactive) in the assay with UACC-62; 33.2 µM (inactive) in the assay with HT-29; 23.4 µM (inactive) in the assay on HOP-92; 5.13 µM (inactive) with NCI-H460. In addition, the GI50 in the assay on SK-MEL-28 was 24.5 µM (inactive); with A498, 46.1 µM (inactive); in the assay with T47D it was 54.1 µM (inactive); in the assay with U-251 it was 17 µM (inactive); in the assay with SN12C it was 47 µM (inactive); in the assay with NCI-H522 it was 27.8 µM (inactive).
`Fc1cccc(F)c1C(Nc1nncs1)Nc1nncs1`: the GI50 was 97.7 µM (inactive) in the assay on MCF7; 86.7 µM (inactive) in the assay on SW-620; > 100 µM (inactive) in the assay with OVCAR-5; > 100 µM (inactive) in the assay on OVCAR-8; 38 µM (inactive) with MDA-N; > 100 µM (inactive) in the assay with UO-31. The GI50 in the assay on HCT-116 is 50.5 µM (inactive); with UACC-62, > 100 µM (inactive); in the assay with HT-29 it was 47.2 µM (inactive); with HOP-92, > 100 µM (inactive); in the assay with NCI-H460, > 100 µM (inactive); in the assay on SK-MEL-28 it was > 100 µM (inactive). Also, the GI50 with A498, with T47D, with U-251, in the assay on SN12C and in the assay with NCI-H522 was > 100 µM (inactive) each time.
Take `O=C(N/N=C/C=C/c1ccccc1)c1ccccc1Nc1ccccc1C(=O)N/N=C/C=C/c1ccccc1`: the GI50 was 12.5 µM (inactive) in the assay with CCRF-CEM; > 100 µM (inactive) in the assay with MCF7; > 100 µM (inactive) in the assay on SW-620; > 100 µM (inactive) in the assay with OVCAR-5; > 100 µM (inactive) in the assay with OVCAR-8; > 100 µM (inactive) with MDA-N. Further, the GI50 is > 100 µM (inactive) in the assay with UO-31; 90.8 µM (inactive) in the assay on HCT-116; 93.5 µM (inactive) in the assay on UACC-62; > 100 µM (inactive) in the assay on HT-29; 67 µM (inactive) with HOP-92; 26.5 µM (inactive) in the assay with NCI-H460. Also, the GI50 in the assay on SK-MEL-28 was > 100 µM (inactive); in the assay with A498, > 100 µM (inactive); in the assay with MOLT-4 it was 1.92 µM (inactive); in the assay on T47D it was > 100 µM (inactive); with U-251, 20.8 µM (inactive); in the assay on SN12C, > 100 µM (inactive).
Regarding `CO/N=C1\CCC2(O)C3Cc4ccc(O)c5c4C2(CCN3CC2CC2)[C@H]1O5` (some centres undefined), the GI50 in the assay on CCRF-CEM, in the assay on MCF7, with SW-620, in the assay on OVCAR-5, with OVCAR-8 and with MDA-N was > 100 µM (inactive) throughout. For the same molecule, the GI50 in the assay with UO-31, with HCT-116, in the assay with UACC-62, in the assay with HT-29, in the assay with HOP-92 and in the assay with SK-MEL-28 was > 100 µM (inactive) in each case. Also, the GI50 with A498, in the assay on MOLT-4, in the assay with T47D, in the assay with U-251, with SN12C and with NCI-H522 was > 100 µM (inactive) each time.
On to `Cc1ccc(-n2cnc(C(=N)C#N)c2N)cc1`, for which the GI50 in the assay on CCRF-CEM, in the assay with MCF7, in the assay on SW-620, in the assay with OVCAR-5, in the assay with OVCAR-8 and in the assay on MDA-N was > 100 µM (inactive) throughout. The GI50 with UO-31, in the assay with HCT-116, with UACC-62, with HT-29, in the assay with NCI-H460 and in the assay on SK-MEL-28 was > 100 µM (inactive) throughout. For the same molecule, the GI50 with A498, in the assay with MOLT-4, in the assay with T47D, with U-251, in the assay with SN12C and in the assay with NCI-H522 was > 100 µM (inactive) each time.
`CCCCOP(=O)(OCCCC)/C(C#N)=C/c1ccc(C)o1`: the GI50 in the assay on MCF7 was 22.6 µM (inactive); in the assay with SW-620, 95.9 µM (inactive); with OVCAR-5, 86.3 µM (inactive); in the assay on OVCAR-8 it was 53.6 µM (inactive); in the assay on MDA-N, 36.9 µM (inactive); with HCT-116, 36.9 µM (inactive). Also, the GI50 with UACC-62 is 53.7 µM (inactive); in the assay with HT-29 it was 45.6 µM (inactive); in the assay on HOP-92, 29.6 µM (inactive); with NCI-H460, 61.5 µM (inactive); in the assay on SK-MEL-28 it was 60.8 µM (inactive); in the assay with A498, 56 µM (inactive). The GI50 with MOLT-4 was 63.4 µM (inactive); with T47D it was 51.5 µM (inactive); in the assay with U-251 it was 93.3 µM (inactive); with SN12C, 56.1 µM (inactive); with NCI-H522, 58.9 µM (inactive).
Take `O1C2C1C1OC1C1OC1C1OC21` (centres undefined): the GI50 with CCRF-CEM is < 0.01 µM (active); with MCF7 it was > 100 µM (inactive); in the assay with OVCAR-5 it was > 100 µM (inactive); in the assay on OVCAR-8, > 100 µM (inactive); in the assay with MDA-N, > 100 µM (inactive); with UO-31 it was > 100 µM (inactive). Further, the GI50 with HCT-116, in the assay on UACC-62, in the assay on HT-29, in the assay on HOP-92, in the assay on SK-MEL-28 and with A498 was > 100 µM (inactive) in each case. Also, the GI50 with MOLT-4, in the assay with T47D, in the assay on U-251, in the assay on SN12C and in the assay on NCI-H522 was > 100 µM (inactive) in each case.
For the molecule `NCCCCNCCCNC(=O)c1csc(-c2nc(CCN)sc2Cl)n1`, the GI50 in the assay on CCRF-CEM, with MCF7, in the assay with SW-620, with OVCAR-5, with OVCAR-8 and in the assay on MDA-N was > 100 µM (inactive) in each case. In addition, the GI50 was > 100 µM (inactive) in the assay with UO-31; > 100 µM (inactive) in the assay on HCT-116; > 100 µM (inactive) in the assay on UACC-62; > 100 µM (inactive) in the assay on HT-29; 8.85 µM (inactive) in the assay on HOP-92; > 100 µM (inactive) with NCI-H460. Also, the GI50 in the assay with SK-MEL-28, in the assay on A498, with MOLT-4, with T47D, in the assay on U-251 and in the assay with SN12C was > 100 µM (inactive) each time.
As to `O=C(CN1CCOCC1)Nc1ccc2c(c1)C1Oc3ccccc3CC1CO2` (centres undefined), the GI50 in the assay with CCRF-CEM, with MCF7, with SW-620, with OVCAR-5, in the assay with OVCAR-8 and in the assay on MDA-N was > 100 µM (inactive) throughout. The GI50 with UO-31, with HCT-116, with UACC-62, with HT-29, with HOP-92 and in the assay with A498 was > 100 µM (inactive) each time. The GI50 is 88.1 µM (inactive) in the assay with MOLT-4; > 100 µM (inactive) in the assay with T47D; > 100 µM (inactive) in the assay on U-251; > 100 µM (inactive) in the assay on SN12C; > 100 µM (inactive) in the assay on NCI-H522.
For `O=[N+]([O-])C(=C(N1CCCCC1)N1CCCCC1)/C(Cl)=C(\Cl)Br`, the GI50 is 11.1 µM (inactive) in the assay with CCRF-CEM; 21.9 µM (inactive) in the assay with MCF7; 15.6 µM (inactive) in the assay with SW-620; 16.4 µM (inactive) with OVCAR-8; 29.2 µM (inactive) in the assay with MDA-N; 34.5 µM (inactive) with UO-31. Further, the GI50 with HCT-116 was 14.2 µM (inactive); with UACC-62, 10.7 µM (inactive); in the assay on HT-29, 29.7 µM (inactive); in the assay with HOP-92, 19.4 µM (inactive); with NCI-H460 it was 21 µM (inactive); in the assay with SK-MEL-28 it was 19.5 µM (inactive). For the same molecule, the GI50 in the assay on A498 is 21.5 µM (inactive); in the assay on MOLT-4 it was 18.7 µM (inactive); in the assay on T47D it was 25.2 µM (inactive); in the assay with U-251 it was 18.7 µM (inactive); in the assay on SN12C it was 29.7 µM (inactive); in the assay with NCI-H522, 18.1 µM (inactive).
In the case of `CC(=O)NC1C(OCc2ccccc2)OC(CO)C(O)C1OC(C)C(=O)NC(C(=O)NC(CCC(=O)Nc1ccc2c(c1)CN1C(=O)c3ccccc3C1=N2)C(N)=O)C(C)C` (centres undefined), the GI50 in the assay with CCRF-CEM, in the assay on MCF7, in the assay on SW-620, in the assay with OVCAR-5, in the assay with OVCAR-8 and with MDA-N was > 100 µM (inactive) in each case. In addition, the GI50 with UO-31, in the assay on HCT-116, in the assay on UACC-62, in the assay on HT-29, in the assay on HOP-92 and in the assay with NCI-H460 was > 100 µM (inactive) in each case. Also, the GI50 in the assay on SK-MEL-28, in the assay with A498, in the assay on MOLT-4, in the assay with T47D, with U-251 and in the assay on SN12C was > 100 µM (inactive) each time.
